From patent US20190184069A1, “ANTIMICROBIAL COMPOSITIONS COMPRISING MINOCYCLINE AND DEGRADATION PRODUCTS OF OXIDIZED CELLULOSE” (Omrix Biopharmaceuticals Ltd., priority 2017, published 2019)
“Also recorded” adds a separate entry of the source.

Tests used:
[1] = tested on: S. aureus; experiment: Secondary stage: bacterial growth (ET50/MIC) of antibiotics with or without extract of degradation products of ORC; format: cell-based, Staphylococcus aureus; details: for Effect of addition of degradation products of ORC on the antibiotic activity: antibiotic with versus without ORC degradation products
Description: ORC pads which had not been impregnated with antibiotic (referred to herein as “blank ORC pads”), were subjected to extraction and degradation in PBS for three hours at ambient temperature. Extract obtained from these blank ORC pads is referred to herein as “blank extract of degradation products of ORC”.
Blank ORC pads were subjected to extraction and degradation in a solution of antibiotic in PBS. Extracts of degradation products obtained from blank ORC pads in a solution of antibiotic in PBS is referred to herein as “extracts of degradation products of blank ORC in antibiotic”.
Due to the acidity of ORC, which provides some antibiotic effect, the size of the pad used was small i.e. approximately 1×1.5 inch, weighing between 65-75 mg (70 mg on average) in order to prevent the ORC from affecting the final pH of the assay and therefore the growth of the bacteria.
15 ml tubes, each containing 3 ml of an antibiotic solution at a known concentration in sterile PBS, were prepared in duplicate.
Blank ORC pads were subjected to extraction and degradation in the antibiotic solution by immersing the ORC pads in the antibiotic solution for 3-5 hours at ambient temperature on a roller mixer (Stuart, Cat#SRT9D).
Blank extract of degradation products of ORC and extract in antibiotic of degradation products of ORC, prepared as described above, were diluted 10 folds in MHBII in sterile 15 ml capped tubes.
(§1) The 5×10^6 CFU/ml stock suspension which had been prepared in advance was transferred into a reservoir and 10 μl of the stock suspension were added into each well of columns 2-11 using a multichannel pipette to obtain a final 5×10^5 CFU/ml suspension.
Columns 3 to 6, rows B to F, were filled with the Blank ORC extracted in antibiotic at decreasing concentrations 1 to 5, diluted 10 folds in MHBII. Each sample tested was placed in 4 well repeats for statistical results.
Columns 7 to 10, rows B to F, were filled with the antibiotic solution (AB) at decreasing concentrations 1 to 5, diluted 10 folds in MHBII. Each sample tested was placed in 4 well repeats for statistical results.
Columns 3 to 6, row G, were filled with the blank extract of degradation products of ORC (PBS-ORC) diluted 10 folds in MHBII.
The plate was incubated at 37° C. with shaking in the ELISA reader and the optical density at 600 nm was read every 20 minutes for a total of 18 hours.
The average and standard deviation for OD readings was calculated for each time point of the wells using Excel. The average values were plotted against time to obtain a graph of the bacterial growth curves in the presence of each of the antibiotics tested.
In some cases, the average OD was plotted for a single endpoint of 800 minutes for the various antibiotic treatments and controls.
The average values were also entered into the GraphPad Prism program (GraphPad Software Inc., CA, USA) in order to calculate the Effective Time 50 (ET50) i.e. the time, in minutes, required for the antibiotic to induce a response halfway between the baseline and maximum, where the maximum is the bacterial growth in MHBII with PBS. This provides a quantifiable measure of the efficacy of the antibiotics tested and enables comparison of the various samples tested.

[2] = tested on: S. aureus; experiment: Tertiary stage: antimicrobial activity (ET50/MIC) of extract of degradation products of antibiotic-impregnated ORC pads, single or combination; format: cell-based, Staphylococcus aureus; details: impregnated on ORC pad together with 1.26 ng/ml minocycline
Procedure: Solutions comprising different concentrations of antibiotics to be tested were prepared in methanol.
Blank ORC pads of dimensions 1×1.5 inch, weighing between 65-75 mg (70 mg on average), in duplicate, were immersed in the antibiotic solutions and then dried using a rotary evaporator to provide extract of degradation products of antibiotic-impregnated ORC pads.
15 ml test tubes containing 3 ml of sterile PBS were prepared, and the antibiotic-impregnated ORC pads were immersed in the tubes and incubated for 3-5 hours at ambient temperature on a roller mixer (Stuart, Cat#SRT9D).
Each of the above extracts was filtered out using a sterile 0.8/0.2 μm syringe filter into a clean 15 ml tube. These extraction fluids are referred to herein as “extract of degradation products of antibiotic-impregnated ORC”.
Briefly, ORC pads weighing on average 70 mg each were impregnated with the selected antibiotic. Extracts of degradation products of antibiotic-impregnated ORC were prepared by immersion and incubation in 3 ml of sterile PBS for 3 hours at ambient temperature. The ORC degeneration products were then removed, and any remaining ORC particles were filtered out using a […] syringe filter. This extraction fluid was then diluted 10-fold into Muller Hinton growth medium containing bacteria. Bacterial growth was monitored every 20 min for a total of 18 hours according to optical density (OD) at 600 nm, using an ELISA reader.
Since the study included many possible combinations of two antibiotics, each with their own different concentration range, a matrix of possible antibiotic concentrations was designed, and degradation products of ORC were prepared accordingly (see Table 10). Since all the possible combinations could not be fitted into one 96 well plate, a series of MIC experiments were carried out.

[3] = tested on: S. aureus; experiment: Primary stage MIC measurement of antibiotic alone (OD 600 nm growth curves, 18 h); format: cell-based, Staphylococcus aureus
Description: The following day, the turbidity of the actively-growing broth culture was adjusted with Calcium-adjusted Mueller Hinton broth II (MHBII) to be equivalent to that of a 0.5 McFarland standard (1×10^8 CFU/ml). The broth culture was maintained under ambient conditions prior to use.
The method used in this stage was based on the classic Minimum Inhibitory Concentration (MIC) measurements, as described by the Clinical and Laboratory Standards Institute (CLSI) document M07-A9: “Method for Dilution Antimicrobial Susceptibility Test for Bacteria that Grow Aerobically”. While classic MIC measurements require visual inspection of plates for bacterial growth after 18 hours, growth was monitored in the present study according to optical density (OD) at 600 nm, using an ELISA reader (MultiSkan™ FC ELISA reader, Thermo Fisher Scientific, Massachusetts, USA), thereby obtaining bacterial growth curves for tested antibiotic solutions.
Columns 1 and 3-12: 100 μl of MHBII alone was added to each well.
[…]: 200 μl of a solution of antibiotic in MHBII at the highest concentration to be tested was added to each well.
A series of 2-fold dilutions was performed, wherein 100 μl of solution of antibiotic was withdrawn from each well of column 2, transferred to the corresponding well of column 3, and mixed.
The dilution was then repeated by transfer from column 3 to column 4, and so on, until column 11, when the 100 μl of solution of antibiotic withdrawn from each well of column 11 was discarded.
as §1
The plate was then incubated at 37° C. with shaking in the ELISA reader and the optical density at 600 nm was read every 20 minutes for a total of 18 hours.
The average OD reading obtained for each antibiotic concentration was calculated and plotted against time to obtain a growth curve.
The MIC was determined as the first antibiotic concentration at which […] by the end of the 18-hour period.

[4] = tested on: S. aureus; details: cited from earlier work

CN(C)[C@@H]1C(O)=C(C(N)=O)C(=O)[C@@]2(O)C(O)=C3C(=O)c4c(O)cccc4[C@@](C)(O)[C@H]3C[C@@H]12 [Tetracycline]
Effect of addition of degradation products of ORC on the antibiotic activity [1]: no effect | ET50 ([1]; tetracycline 0.025 μg/ml, +ORC degradation products): 517.7 min | ET50 ([1]; tetracycline 0.025 μg/ml, −ORC): 531.1 min | ET50 ([1]; tetracycline 0.05 μg/ml, +ORC degradation products): 741.1 min | ET50 ([1]; tetracycline 0.05 μg/ml, −ORC): 989.9 min | ET50 ([1]; tetracycline 0.1 μg/ml, +ORC degradation products): 1470 min | ET50 ([1]; tetracycline 0.1 μg/ml, −ORC): 1889 min | ET50 ([1]; tetracycline 0.2 μg/ml, +ORC degradation products): >2000 min | ET50 ([1]; tetracycline 0.2 μg/ml, −ORC): >2000 min | ET50 ([1]; tetracycline 0.4 μg/ml, +ORC degradation products): >2000 min | ET50 ([1]; tetracycline 0.4 μg/ml, −ORC): >2000 min

CCC[C@@H]1C[C@@H](C(=O)N[C@@H]([C@H]2O[C@H](SC)[C@H](O)[C@@H](O)[C@H]2O)[C@H](C)Cl)N(C)C1 [Clindamycin, clindamycin]
Clindamycin level sufficient for growth inhibition of S. aureus in combination [2]: 8.9 ng/mL | MIC as single antibiotics in the absence of ORC (first stage MIC results) [3]: 0.062 µg/mL | Effect of addition of degradation products of ORC on the antibiotic activity [1]: no effect

Gentamycin [Gentamicin]
MIC values found in the present study (primary stage, Example 1) ([3]; antibiotic alone, no ORC): 0.25 µg/mL | Effect of addition of degradation products of ORC on the antibiotic activity [1]: reduction in the antibiotic activity; also recorded: decreased antibiotic activity; also recorded: lowering of the antibiotic activity; also recorded: impaired | ET50 ([1]; gentamycin 0.1 μg/ml, +ORC degradation products): 423.7 min | ET50 ([1]; gentamycin 0.1 μg/ml, −ORC): 509.4 min | ET50 ([1]; gentamycin 0.3 μg/ml, +ORC degradation products): 429.3 min | ET50 ([1]; gentamycin 0.3 μg/ml, −ORC): 1360 min | ET50 ([1]; gentamycin 0.5 μg/ml, +ORC degradation products): 423.1 min | ET50 ([1]; gentamycin 0.8 μg/ml, +ORC degradation products): 422.7 min | ET50 ([1]; gentamycin 1 μg/ml, +ORC degradation products): 446.6 min | MIC values for S. aureus according to the literature [4]: 0.12 to 1 µg/mL
